Experimental data as given in patent US20050085420A1, “Method of modulating apoptosis and compositions thereof” (priority 2003, published 2005).

Assays:
Type in all cases: cell-based, mouse
vdac2 -/- MEF lines = assay: Cytochrome c fluorescence microscopy after staurosporine, vdac2 -/- MEF line; settings: 1 μM STS, 4 hours
Procedure: (§1) FIG. 4D is a photograph depicting two-color fluorescence microscopy of wt and vdac2 -/- MEF lines at 4 hours following 1 μM STS. Red indicates cytochrome c and blue is Hoechst staining of DNA.
(§2) MEF cell lines treated with 1 μM staurosporine were harvested at various time points and lysed for 5 min in isotonic buffer containing 10 mM KCl, 5 mM MgCl2, 1 mM EDTA, 1 mM EGTA, 250 mM sucrose, 20 mM Hepes, pH 7.2, 0.025% digitonin, and complete protease inhibitors (Roche). Organelles that contain mitochondria were removed from the soluble cytosolic fraction by pelleting at 15000 g. Supernatant and mitochondrial pellets were solubilized in SDS-PAGE loading buffer and analyzed by an immunoblot, developed with an anti-cytochrome c Ab. Protein cross-linking, immunoblot, immunoprecipitation, isolation of mitochondria, cell viability assays, and anti-cytochrome c immunohistochemistry were described previously E. H. Cheng et al., Mol Cell 8, 705-11. (2001).

wt MEF lines = assay: Cytochrome c fluorescence microscopy after staurosporine, wt MEF line; settings: 1 μM STS, 4 hours
Procedure: as §1, §2

vdac2 -/- MEF cell lines [1] = assay: Cytochrome c release assay (subcellular fractionation, immunoblot), vdac2 -/- cells; settings: 1 μM staurosporine
Procedure: (§3) FIG. 4C is a photograph depicting treatment of wt or vdac2 -/- MEF cell lines with 1 μM STS. The wt or vdac2 -/- MEF cell lines were subcellularly fractionated (see method) at indicated time points. Cytochrome c distribution in the cytosol versus mitochondria was assessed by immunoblot developed with an anti-cytochrome c antibody.
as §2, with “Protein cross-linking, immunoblot, immunoprecipitation, isolation of mitochondria, cell viability assays, and anti-cytochrome c immunohistochemistry were described previously E. H. Cheng et al., Mol Cell 8, 705-11. (2001).” left out
(§4) In contrast, the response of wt- and vdac2-dificient cells was similar when the extrinsic death pathway was activated by TNFα (FIG. 4E). […] BAK already underwent oligomerization within 5 hours after staurosporine treatment in vdac2 -/- cells but not wt cells, as assessed by gel filtration (FIG. 4F) (X. Roucou, S. Montessuit, B. Antonsson, J. C. Martinou, Biochem J 368, 915-21. (2002)). […]

wt MEF cell lines [2] = assay: Cytochrome c release assay (subcellular fractionation, immunoblot), wt cells; settings: 1 μM staurosporine
Procedure: as §3
as §2, with “Protein cross-linking, immunoblot, immunoprecipitation, isolation of mitochondria, cell viability assays, and anti-cytochrome c immunohistochemistry were described previously E. H. Cheng et al., Mol Cell 8, 705-11. (2001).” left out
as §4

vdac2 -/- MEF cell lines [3] = assay: BAK oligomerization by gel filtration after staurosporine, vdac2 -/- cells
Procedure: (§5) FIG. 4F is a photograph depicting mitochondria isolated from wt or vdac2 -/- MEF cell lines with or without treatment with STS for 5 hours were solubilized in 2% CHAPS buffer. 200 μg of lysate was subjected to Superdex 200 (HR 10/30) gel filtration column chromatography. Fractions were analyzed by an immunoblot developed with anti-BAK antibody.
(§6) The chromatographic step of Superdex 200 (HR 10/30, Amersham-Pharmacia) was performed on an automatic fast protein liquid chromatography (FPLC) station (Amersham-Pharmacia) at 4° C. […] Fractions of 0.6 ml were collected, precipitated by trichloroacetic acid, and analyzed by an immunoblot (fractions 16-31) developed with an anti-BAK Ab.
as §4

wt MEF cell lines [4] = assay: BAK oligomerization by gel filtration after staurosporine, wt cells
Procedure: as §5, §6, §4

Bax -/- MEFs = assay: Annexin-V cell death after retroviral expression of VDAC1 or VDAC2 in Bax -/- MEFs; settings: Bax -/- cells
Procedure: (§7) FIG. 3A are two graphs illustrating Bax -/- or Bak -/- MEFs at 2 days following retroviral expression of VDAC1, VDAC2, or GFP (MIG vector control), wherein the Bax -/- or Bak -/- MEFs were treated with 1.2 μM staurosporine (STS). Cell death was quantitated by flow cytometric detection of Annexin-V staining at indicated time points. Values shown are mean ±1 SD of three independent experiments.
(§8) FIG. 3B is a histogram depicting Bax -/- or Bak -/- MEFs at 2 days following retroviral expression of VDAC2 or GFP (MIG vector control), wherein the Bax -/- or Bak -/- MEFs were infected with tBID-expressing retrovirus. Cell death was quantitated by flow cytometric detection of Annexin-V staining at 24 hr. Values shown are mean ±1 SD of three independent experiments.
as §7, with “6” for “3A”, “that depict” for “illustrating”, “10 μg/ml etoposide.” for “1.2 μM staurosporine (STS).”
(§9) Previous studies have shown that cells doubly deficient for BAX and BAK are resistant to intrinsic death stimuli, whereas cells singly deficient for BAX or BAK are still susceptible (M. C. Wei et al., Science 292, 727-30. (2001)). As VDAC2 interacts with BAK but not BAX, the ability of VDAC2 to modulate apoptosis mediated by BAK or BAX was tested. According to one hypothesis, VDAC2 might function as an inhibitor of BAK or VDAC2 itself might function as a proapoptotic factor once released from BAK. To address these alternatives VDAC 1 or VDAC2 was expressed in Bax -/- or Bak -/- singly deficient mouse embryonic fibroblasts (MEFs) followed by treatment with staurosporine or etoposide. […] Expression of VDAC2 inhibited tBID-induced apoptosis of Bax -/- cells but not Bak -/- cells, further supporting a selective role for VDAC2 in negatively regulating BAK-dependent apoptosis (FIG. 3B).

Bak -/- MEFs = assay: Annexin-V cell death after retroviral expression of VDAC1 or VDAC2 in Bak -/- MEFs; settings: Bak -/- cells
Procedure: as §7, §8
as §7, with “6” for “3A”, “that depict” for “illustrating”, “10 μg/ml etoposide.” for “1.2 μM staurosporine (STS).”
as §9

vdac2 -/- MEFs = assay: Re-expression of VDAC2 in vdac2 -/- MEFs, Annexin-V cell death; settings: normal physiologic levels, 1.2 μM staurosporine 6 hr
Procedure: FIG. 3E is a histogram depicting infection of primary vdac2 -/- MEFs with retrovirus expressing GFP (MIG vector control) or VDAC2-IRES-GFP. At 36 hours the GFP-positive cells isolated by MoFlo sorting were treated with 1.2 μM staurosporine for 6 hr. Cell death was quantitated by flow cytometric detection of Annexin-V staining. Values shown are mean ±1 SD of three independent experiments.

[5] = retroviral expression, 1.2 μM staurosporine or 10 μg/ml etoposide, Annexin-V
[6] = tBID-expressing retrovirus, Annexin-V at 24 hr

Molecule	cells with diffuse cytosolic staining for cytochrome c (vdac2 -/- MEF lines) [%]	cells with diffuse cytosolic staining for cytochrome c (wt MEF lines) [%]	time of complete release of cytochrome c (vdac2 -/- MEF cell lines [1]) [h]	time of partial release of cytochrome c into the cytosol (vdac2 -/- MEF cell lines [1]) [h]	release of cytochrome c at 3 and 5 hours (wt MEF cell lines [2])	time to BAK oligomerization (vdac2 -/- MEF cell lines [3]) [h]	time to BAK oligomerization (wt MEF cell lines [4]) [h]	apoptosis after staurosporine or etoposide (Bax -/- MEFs; [5])	tBID-induced apoptosis (Bax -/- MEFs; [6])	apoptosis after staurosporine or etoposide (Bak -/- MEFs; [5])	tBID-induced apoptosis (Bak -/- MEFs; [6])	susceptibility to apoptosis after re-expression (vdac2 -/- MEFs)
CN[C@@H]1C[C@H]2O[C@@](C)([C@@H]1OC)n1c3ccccc3c3c4c(c5c6ccccc6n2c5c31)C(=O)NC4 [staurosporine]	83	16	≤ 5	≤ 3	had not initiated any release of cytochrome c	≤ 5	~10	–	–	–	–	–
VDAC2: Voltage-Dependent Anion Channel-2, murine, retrovirally expressed (protein, UniProt Q60930 1-295, looked up) Non-selective voltage-gated …: MAECCVPVCPRPMCIPPPYADLGKAARDIFNKGFGFGLVKLDVKTKSCSGVEFSTSGSSNTDTGKVSGTLETKYKWCEYGLTFTEKWNTDNTLGTEIAIEDQICQGLKLTFDTTFSPNTGKKSGKIKSAYKRECINLGCDVDFDFAGPAIHGSAVFGYEGWLAGYQMTFDSAKSKLTRSNFAVGYRTGDFQLHTNVNNGTEFGGSIYQKVCEDFDTSVNLAWTSGTNCTRFGIAAKYQLDPTASISAKVNNSSLIGVGYTQTLRPGVKLTLSALVDGKSFNAGGHKLGLALELEA	–	–	–	–	–	–	–	significantly inhibited apoptosis	inhibited	no effect	not	reversed the increased susceptibility to apoptosis
